Results on two molecules are retold here after patent US10316057B2, “Tandem facial amphiphiles” (WISCONSIN ALUMNI RESEARCH FOUNDATION, priority 2011, dated 2019).

Several values for one entry are separate records, joined by “and”; a condition that tells them apart may be missing. Equal values may be shown once. Where a name gives a salt, the structure may show the parent alone.

The nature of data set [1]: Micelle characterization by gel filtration with triple detector analysis (TDA). Type of data set: physicochemical. Particulars: for dn/dc, specific refractive index increment / IV, intrinsic viscosity / N, aggregation number of micelles / Rh (nm) / MMW, molecular weight of micelles / Mw/Mn, weight-averaged molecular weight divided by number-averaged molecular weight: TDA; for IV, intrinsic viscosity / N, aggregation number of micelles / Rh (nm) / MMW, molecular weight of micelles: 20 mM HEPES, 150 mM NaCl buffer; for IV, intrinsic viscosity / N, aggregation number of micelles / Rh (nm) / MMW, molecular weight of micelles / Mw/Mn, weight-averaged molecular weight divided by number-averaged molecular weight: mean ± SD; for MMW, molecular weight of micelles: TFA-1 n = 6, DDM n = 8; for Mw/Mn, weight-averaged molecular weight divided by number-averaged molecular weight: micelles; for MW of micelles in water: summary statement. The protocol: Micelles formed by DDM or by TFA-1 in pH 7.0 buffer (20 mM HEPES, 150 mM NaCl) were further characterized by gel filtration using a triple-detector system (Gatta et al., Anal. Biochem. 2010, 404, 21-29), analyzing light scattering, refractive index, and differential pressure (Table 2). In both cases the micelles are globular and monodisperse. TFA-1 micelles contain only 6 molecules, which contrasts with the ˜175 molecules in a DDM micelle. TFA-2 (R=ethyl) behaved similarly to TFA-1 (R=methyl), given the similarity in Rh, but TFA-3 (R=butyl) forms larger micelles. A related trend was observed among lipopeptides, with increasing length of the alkyl appendages leading to increasing micelle size (McGregor et al., Nat. Biotech. 2003, 21, 171-176).
The on-line SEC triple detector array (Gatta et al., Anal. Biochem. 404, 21 (2010)) (Viscotek Corporation, a Malvern Company) used for detergent analysis is composed of 1) a 660 nm differential refractometer for quantifying the concentration C (mg/mL) for all molecules according to their specific refractive index increment do/dc (mL/g) using Snell's Law of Refraction (RI signal=KRI*C*(dn/dc)/RISol), 2), a single right angle 90° static light scattering (RALS) detector for measuring the average mass M (Da) according to the Raleigh Light Scattering Equation for small molecules (LS90° signal=Mavg*RIsol^2*C*(dn/dc)^2)/KLS*Kopt, where Kopt=4*π^2/(λ^4*NA), and 3) an absolute differential viscometer (Haney, J. Appl. Polym. Sci. 30, 3023 (1985)) for measuring differential pressure (DP) and calculating intrinsic viscosity (IV; dL/g) according to Newtonian Viscosity (liquid layers) applied to tubes using Poiseulle's Law (DP signal=IV*C) and for calculating the radius of hydration Rh (nm) according to Einstein's volume of hydration equation for hard spheres (Rh=[( 3/10π)*IV*M/NA]^1/3).
The IV represents molecular shape and for proteins it can vary from 0.017 dl/g for globular shapes to 0.355 dl/g for elongated shapes to 0.499 dl/g for complete denaturation (Scheraga and Mandelkern, J. Chem. Phys. 75, 179-184 (1953); Dutta et al., J. Chromatogr. 536, 113-121 (1991); Chenal et al., J. Biol. Chem. 16, 284(3), 1781-1789 (2009)). The chromatography pump, injector, SEC column (0.75×60 cm TSK G3000 plus guard column), and TDArray are placed in a 4° C. cold box, while the buffer (degassed for more than 1 hr with stir prior use) is at room temperature (RT) to allow it to be run through a RT on-line degasser, which then runs though 3 ft of 4° C. stainless steel tubing before entering the SEC pump, injector and column. The extensive degassing insures an accurate DP measurement. With this configuration, the temperature at the detectors is 6° C. TDA buffer was 20 mM Hepes, 150 mM NaCl, […] and either 0.1 mM TFA-1 or 1 mM DDM. The refractive index of the solvent RISol was measured at 10° C. using an Anton Paar Abbemat temperature controlled refractometer at 589.2 nm. Triple detection data at every 5 Hz data point throughout the complete SEC peak were used for all analysis.
For calibration, the detector response factors KRI and KLS were measured using Ovalbumin Fraction VII (Sigma). Prior to calibration, ovalbumin was first purified by SEC (280 nm detection) at 4° C. to remove small populations of dimers and aggregates, and to insure Gaussian detector peaks for TDA calibration. Ovalbumin was solubilized at 26 mg/mL in TDA buffer at 4° C. for 10 min and clarified by centrifugation (10 min 15,000×g); collecting the top 30% of the SEC elution peak from 500 μL injections yielded monodisperse ovalbumin at 5-7 mg/mL. Ovalbumin mass was 44.3 kDa (Sigma Product Information sheet and references therein) with a 0.701 dA280nm/dc (Pace et al., Prot. Sci. 4(11), 2411-2423 (1995)) and 0.187 dn/dc (Maezawa et al., Biochem. Biophys. Acta 747, 291-297 (1983); Hayashi et al., Methods Enzymol. 172, 514-528 (1989)). […]
For orientation: In gel filtration, larger molecules generally elute earlier.

For another data set, the target named is T1, Bacteriorhodopsin (bR) (Halobacterium salinarum, UniProt P02945).
T1 construct: extract bR from the native purple membrane; endogenous in cells
T1 sequence (P02945 14-261 limits assumed): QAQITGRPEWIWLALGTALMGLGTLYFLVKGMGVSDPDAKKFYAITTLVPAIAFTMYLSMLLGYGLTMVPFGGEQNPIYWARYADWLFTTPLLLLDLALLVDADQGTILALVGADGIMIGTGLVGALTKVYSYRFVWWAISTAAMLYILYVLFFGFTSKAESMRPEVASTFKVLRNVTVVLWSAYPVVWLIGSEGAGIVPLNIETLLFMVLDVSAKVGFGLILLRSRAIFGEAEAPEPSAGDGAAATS
The data set is described as follows: Stabilization assay for bacteriorhodopsin (absorbance at 554 nm). The note with it: day 20, room temperature, 0.2 wt % OTG+0.8 wt % TFA. The procedure: Bacteriorhodopsin (bR) has been widely employed for assessment of new amphiphiles because this membrane protein is readily available, and stability can be assessed via spectrophotometry (absorbance at 554 nm). Following standard protocols (Bazzacco et al., Biomacromolecules 2009, 10, 3317-3326), 2.0 wt % octyl-β-D-thioglucoside (OTG) was used to extract bR from the native purple membrane. After removal of insoluble debris via ultracentrifugation, the bR solution was diluted with amphiphile-containing solutions to generate samples containing 0.2 wt % OTG+0.8 wt % TFA. A control sample had OTG added to give a total of 1.0 wt %. […] Parallel studies were carried out at different amphiphile concentrations as described in Example 3 below. DDM is not efficient at bR extraction from the native membrane but extracted bR can be stable in the presence of DDM (Milder et al., Biochemistry 1991, 30, 1751-1761).
The general procedure was followed according to the reported protocol of Bazzacco et al. (Biomacromolecules 10, 3317-3326 (2009)). Frozen aliquots of purple membranes containing bR at 184 μM were thawed and solubilized by incubation with octylthioglucoside (OTG) for 24 hr at 4° C. in a dark room. For the solubilization, OTG (CMC=0.28 wt %) was used at 2.0 wt % in 10 mM sodium phosphate (pH 6.9). […] BR stability in each TFA solutions was monitored by measuring absorbance at 554 nm for 20 days.

`CCCCCCCCCCCCO[C@@H]1O[C@H](CO)[C@@H](O[C@H]2O[C@H](CO)[C@@H](O)[C@H](O)[C@H]2O)[C@H](O)[C@H]1O` [DDM, dodecyl-β-D-maltoside, reference compound]: in data set [1], the “dn/dc, specific refractive index increment” value came to 0.130 mL/g; the “IV, intrinsic viscosity” value was determined as 0.028 ± 0.009 dL/g; the “N, aggregation number of micelles” value is 176.4 ± 1.3; the “Rh (nm)” value was found to be 3.42 ± 0.04 nm. Also, in data set [1], the “MMW, molecular weight of micelles” value stood at 89982 ± 663 Da; the “Mw/Mn, weight-averaged molecular weight divided by number-averaged molecular weight” value was found to be 1.01 ± 0.00; the “MW of micelles in water” value is listed as approximately 90 kD.
Take `C[C@H](CCC(=O)N(C)CCCN(C)C(=O)CC[C@@H](C)[C@H]1CC[C@H]2[C@@H]3CC[C@@H]4C[C@H](O[C@@H]5O[C@H](CO)[C@@H](O[C@H]6O[C@H](CO)[C@@H](O)[C@H](O)[C@H]6O)[C@H](O)[C@H]5O)CC[C@]4(C)[C@H]3C[C@H](O[C@@H]3O[C@H](CO)[C@@H](O[C@H]4O[C@H](CO)[C@@H](O)[C@H](O)[C@H]4O)[C@H](O)[C@H]3O)[C@]12C)[C@H]1CC[C@H]2[C@@H]3CC[C@@H]4C[C@H](O[C@@H]5O[C@H](CO)[C@@H](O[C@H]6O[C@H](CO)[C@@H](O)[C@H](O)[C@H]6O)[C@H](O)[C@H]5O)CC[C@]4(C)[C@H]3C[C@H](O[C@@H]3O[C@H](CO)[C@@H](O[C@H]4O[C@H](CO)[C@@H](O)[C@H](O)[C@H]4O)[C@H](O)[C@H]3O)[C@]12C` [TFA-1]: in data set [1], the “dn/dc, specific refractive index increment” value amounted to 0.173 mL/g; the “IV, intrinsic viscosity” value is recorded as 0.036 ± 0.005 dL/g; the “N, aggregation number of micelles” value was 6 and 6.2 ± 0.07; the “Rh (nm)” value is listed as 1.96 ± 0.01 nm. Besides, in data set [1], the “MMW, molecular weight of micelles” value came to 13279 ± 157 Da; the “Mw/Mn, weight-averaged molecular weight divided by number-averaged molecular weight” value came out at 1.00 ± 0.00; the “MW of micelles in water” value is given as approximately 13 kD. The bR intact on Bacteriorhodopsin (bR) is approximately 80%.
